# From patent US11739100B2, “2,3-dihydro-1h-imidazo{1,2-a}pyrimidin-5-one and this 1,2,3,4-tetrahydropyrimido{1,2-a}pyrimidin-6-one derivatives comprising a substituted morpholine, preparation thereof and pharmaceutical use thereof” (SANOFI, priority 2012, dated 2023)
# Molecular target: T1, recombinant Vps34 (Homo sapiens, UniProt Q8NEB9)
# T1 construct: purchased Invitrogen PV5126
# Assay: Phosphorylation of phosphatidylinositol (PI) by Vps34 in vitro, ADP detected by TR-FRET (HTRF Transcreener ADP)
# Type: biochemical
# Conditions: 10 μM ATP, 55 μg/ml PI, approximately 3 nM Vps34, 1 hour at ambient temperature; absolute IC50, mean of two independent experiments; read-out: IC50 activity range
# T1 sequence (Q8NEB9 whole entry): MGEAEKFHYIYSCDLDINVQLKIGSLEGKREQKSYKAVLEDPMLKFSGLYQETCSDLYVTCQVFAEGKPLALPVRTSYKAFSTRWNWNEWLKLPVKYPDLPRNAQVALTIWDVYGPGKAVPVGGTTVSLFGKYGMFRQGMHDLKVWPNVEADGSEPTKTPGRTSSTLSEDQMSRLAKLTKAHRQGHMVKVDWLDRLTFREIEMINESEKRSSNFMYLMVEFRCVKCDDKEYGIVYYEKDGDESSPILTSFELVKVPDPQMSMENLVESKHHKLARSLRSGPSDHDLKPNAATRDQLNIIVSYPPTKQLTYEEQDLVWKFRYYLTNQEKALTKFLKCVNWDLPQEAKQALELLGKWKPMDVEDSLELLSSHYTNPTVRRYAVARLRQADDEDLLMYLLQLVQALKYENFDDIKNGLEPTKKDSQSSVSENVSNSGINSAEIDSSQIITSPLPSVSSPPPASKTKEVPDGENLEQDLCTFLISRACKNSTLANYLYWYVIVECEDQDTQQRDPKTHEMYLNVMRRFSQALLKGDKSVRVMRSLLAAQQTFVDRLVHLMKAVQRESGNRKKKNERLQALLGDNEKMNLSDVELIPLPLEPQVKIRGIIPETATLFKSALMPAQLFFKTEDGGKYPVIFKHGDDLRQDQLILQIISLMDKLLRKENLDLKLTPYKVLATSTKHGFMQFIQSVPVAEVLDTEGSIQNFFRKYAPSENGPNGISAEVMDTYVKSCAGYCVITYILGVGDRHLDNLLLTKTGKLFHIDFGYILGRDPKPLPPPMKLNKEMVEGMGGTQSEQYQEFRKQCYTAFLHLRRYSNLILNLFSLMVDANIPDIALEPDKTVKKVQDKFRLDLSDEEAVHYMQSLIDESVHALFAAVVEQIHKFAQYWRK
row,IC50 [µM],SMILES
1,< 0.01,"COc1cc(C(=O)CN2c3nc(N4CCOC[C@H]4C)cc(=O)n3CC[C@H]2C(F)(F)F)ccn1 [Example 61, (S)-9-[2-(2-Methoxy-pyridin-4-yl)-2-oxo-ethyl]-2-((R)-3-methyl-morpholin-4-yl)-8-trifluoromethyl-6,7,8,9-tetrahydro-pyrimido[1,2-a]-pyrimidin-4-one]"
2,< 0.01,"C[C@@H]1COCCN1c1cc(=O)n2c(n1)N(Cc1cc(Cl)ccn1)[C@H](C(F)(F)F)CC2 [Example 65, (S)-9-(4-Chloro-pyridin-2-ylmethyl)-2-((R)-3-methyl-mopholin-4-yl)-8-trifluoromethyl-6,7,8,9-tetrahydro-pyrimido[1,2-a]-pyrimidin-4-one]"
3,< 0.01,"C[C@@H]1COCCN1c1cc(=O)n2c(n1)N(Cc1ccncc1Cl)[C@H](C(F)(F)F)CC2 [Example 66, (S)-9-(3-Chloro-pyridin-4-ylmethyl)-2-((R)-3-methyl-mopholin-4-yl)-8-trifluoromethyl-6,7,8,9-tetrahydro-pyrimido[1,2-a]-pyrimidin-4-one]"
4,< 0.01,"C[C@@H]1COCCN1c1cc(=O)n2c(n1)N(c1cccc(F)c1)[C@H](C(F)(F)F)CC2 [Example 75, (S)-9-(3-Fluoro-phenyl)-2-((R)-3-methylmorpholin-4-yl)-8-trifluoromethyl-6,7,8,9-tetrahydro-pyrimido[1,2-a]-pyrimidin-4-one]"
5,< 0.01,"C[C@@H]1COCCN1c1cc(=O)n2c(n1)N(Cc1ccnc(Cl)c1)[C@H](C(F)(F)F)CC2 [Example 76, (S)-9-(2-Chloro-pyridin-4-ylmethyl)-2-((R)-3-methyl-morpholin-4-yl)-8-trifluoromethyl-6,7,8,9-tetrahydro-pyrimido[1,2-a]-pyrimidin-4-one]"
6,0.01 to 0.1,"C[C@@H]1COCCN1c1cc(=O)n2c(n1)N(Cc1ncco1)[C@H](C(F)(F)F)CC2 [Example 77, (S)-2-((R)-3-Methyl-morpholin-4-yl)-9-oxazol-2-ylmethyl-8-trifluoromethyl-6,7,8,9-tetrahydro-pyrimido[1,2-a]-pyrimidin-4-one]"
7,< 0.01,"C[C@@H]1COCCN1c1cc(=O)n2c(n1)N(c1ccnc(Cl)c1)[C@H](C(F)(F)F)CC2 [Example 79, (S)-9-(2-Chloro-pyridin-4-yl)-2-((R)-3-methylmorpholin-4-yl)-8-trifluoromethyl-6,7,8,9-tetrahydro-pyrimido[1,2-a]-pyrimidin-4-one]"

# The remaining lines, values behind:
row,SMILES,IC50 [µM]
1,"C[C@@H]1COCCN1c1nc2n(c(=O)c1F)CC[C@@H](C(F)(F)F)N2CC(=O)c1ncccc1F [Example 59, (S)-3-Fluoro-9-[2-(3-fluoropyridin-2-yl)-2-oxoethyl]-2-((R)-3-methylmorpholin-4-yl)-8-trifluoromethyl-6,7,8,9-tetrahydro-pyrimido[1,2-a]-pyrimidin-4-one]",< 0.01
2,"C[C@@H]1COCCN1c1cc(=O)n2c(n1)N(CC(=O)c1ncccc1F)[C@H](C(F)(F)F)CC2 [Example 60, (S)-9-[2-(3-Fluoro-pyridin-2-yl)-2-oxo-ethyl]-2-((R)-3-methyl-morpholin-4-yl)-8-trifluoromethyl-6,7,8,9-tetrahydro-pyrimido[1,2-a]-pyrimidin-4-one]",< 0.01
3,"Cc1nocc1CN1c2nc(N3CCOC[C@H]3C)c(F)c(=O)n2CC[C@H]1C(F)(F)F [Example 62, (S)-3-Fluoro-9-(3-methylisoxazol-4-yl-methyl)-2-((R)-3-methylmorpholin-4-yl)-8-trifluoromethyl-6,7,8,9-tetrahydro-pyrimido[1,2-a]-pyrimidin-4-one]",< 0.01
4,"C[C@@H]1COCCN1c1cc(=O)n2c(n1)N(CC(=O)c1cccc(F)n1)[C@H](C(F)(F)F)CC2 [Example 63, (S)-9-[2-(6-Fluoro-pyridin-2-yl)-2-oxo-ethyl]-2-((R)-3-methyl-morpholin-4-yl)-8-trifluoromethyl-6,7,8,9-tetrahydro-pyrimido[1,2-a]-pyrimidin-4-one]",< 0.01
5,"C[C@@H]1COCCN1c1cc(=O)n2c(n1)N(Cc1cn3ccccc3n1)[C@H](C(F)(F)F)CC2 [Example 64, (S)-9-Imidazo[1,2-a]-pyridin-2-ylmethyl-2-((R)-3-methyl-morpholin-4-yl)-8-trifluoromethyl-6,7,8,9-tetrahydro-pyrimido[1,2-a]-pyrimidin-4-one]",> 0.1
6,"C[C@@H]1COCCN1c1cc(=O)n2c(n1)N(CC(=O)Cc1ccccn1)[C@H](C(F)(F)F)CC2 [Example 67, (S)-2-((R)-3-Methyl-morpholin-4-yl)-9-(2-oxo-3-pyridin-2-yl-propyl)-8-trifluoromethyl-6,7,8,9-tetrahydro-pyrimido[1,2-a]-pyrimidin-4-one]",< 0.01
7,"C[C@@H]1COCCN1c1nc2n(c(=O)c1F)CC[C@@H](C(F)(F)F)N2CC(=O)c1nccs1 [Example 68, (S)-3-Fluoro-2-((R)-3-methylmorpholin-4-yl)-9-(2-oxo-2-thiazol-2-yl-ethyl)-8-trifluoromethyl-6,7,8,9-tetrahydro-pyrimido[1,2-a]-pyrimidin-4-one]",< 0.01
8,"C[C@@H]1COCCN1c1nc2n(c(=O)c1F)CC[C@@H](C(F)(F)F)N2Cc1cscn1 [Example 69, (S)-3-Fluoro-2-((R)-3-methylmorpholin-4-yl)-9-thiazol-4-ylmethyl-8-trifluoromethyl-6,7,8,9-tetrahydro-pyrimido[1,2-a]-pyrimidin-4-one]",< 0.01
9,"C[C@@H]1COCCN1c1cc(=O)n2c(n1)N(CC(=O)c1ccc(F)cn1)[C@H](C(F)(F)F)CC2 [Example 70, (S)-9-[2-(5-Fluoro-pyridin-2-yl)-2-oxo-ethyl]-2-((R)-3-methyl-morpholin-4-yl)-8-trifluoromethyl-6,7,8,9-tetrahydro-pyrimido[1,2-a]-pyrimidin-4-one]",< 0.01
10,"C[C@@H]1COCCN1c1nc2n(c(=O)c1F)CCC(C)(C)N2CC(=O)c1ccccn1 [Example 71, 3-Fluoro-8,8-dimethyl-2-((R)-3-methyl-morpholin-4-yl)-9-(2-oxo-2-pyridin-2-yl-ethyl)-6,7,8,9-tetrahydro-pyrimido[1,2-a]-pyrimidin-4-one]",< 0.01
11,"C[C@@H]1COCCN1c1cc(=O)n2c(n1)N(Cc1ccnn1C(F)F)C(C)(C)CC2 [Example 72, 9-(2-Difluoromethyl-2H-pyrazol-3-yl-methyl)-8,8-dimethyl-2-((R)-3-methyl-morpholin-4-yl)-6,7,8,9-tetrahydro-pyrimido[1,2-a]-pyrimidin-4-one]",0.01 to 0.1
12,"C[C@@H]1COCCN1c1nc2n(c(=O)c1F)CCC(C)(C)N2Cc1ccon1 [Example 73, 3-Fluoro-9-isoxazol-3-ylmethyl-8,8-dimethyl-2-((R)-3-methyl-morpholin-4-yl)-6,7,8,9-tetrahydro-pyrimido[1,2-a]-pyrimidin-4-one]",0.01 to 0.1
13,"C[C@@H]1COCCN1c1nc2n(c(=O)c1F)CCC(C)(C)N2Cc1ccnn1C(F)F [Example 74, 9-(2-Difluoromethyl-2H-pyrazol-3-yl-methyl)-3-fluoro-8,8-dimethyl-2-((R)-3-methylmorpholin-4-yl)-6,7,8,9-tetrahydro-pyrimido[1,2-a]-pyrimidin-4-one]",0.01 to 0.1
14,"C[C@@H]1COCCN1c1cc(=O)n2c(n1)N(Cc1cscn1)[C@H](C(F)(F)F)CC2 [Example 78, (S)-2-((R)-3-Methyl-morpholin-4-yl)-9-thiazol-4-ylmethyl-8-trifluoromethyl-6,7,8,9-tetrahydro-pyrimido[1,2-a]-pyrimidin-4-one]",< 0.01
